Measured values published in patent US5034392A, “4-(3-(4-oxothiazolidinyl)butynylamines” (Hoechst-Roussel Pharmaceuticals Incorporated, priority 1990, dated 1991).
Structures can show the parent of a compound that is named as a salt.

Experiments:
[1] = phenyl-para-quinone writhing assay in mice (analgesia); format: in vivo
From the text: The compounds of the present invention are useful as analgesic agents due to their ability to alleviate pain in mammals. […] Exptl. Biol. Med., 95, 729 (1957)]. The analgesic activity of some of the compounds of the invention expressed in terms of percent inhibition of writhing is given in Table 1.

[2] = antihypertensive activity in the spontaneous hypertensive rat by the indirect tail cuff method; format: in vivo; conditions: at 50 mg/kg p.o, treated orally for three days, drop measured on the third day
Protocol: Antihypertensive activity is measured in the spontaneous hypertensive rat by the indirect tail cuff method. […] In this procedure a group of five animals is treated orally for three days with the test compound in relation to a control group of the same number. The drop in blood pressure is measured on the third day following administration.

| SMILES | % Inhibition of Writhing ([1]; at 20 mg/kg s.c.) [%] | mm Hg decrease (decrease in mean arterial blood pressure) [2] [mm Hg] | other results |
| --- | --- | --- | --- |
| CC(C)Cc1ccc(C(C)C(=O)O)cc1 (stereo not shown) [ibuprofen, reference compound] | – | – | % Inhibition of Writhing ([1]; standard, at 10.4 mg/kg s.c.): 50% |
| O=C1CSC2(CCCC2)N1CC#CCN1CCN(C(c2ccccc2)c2ccc(Cl)cc2)CC1 (stereo not shown) [4-(4-(1-(4-Chlorobenzhydryl)piperazino)-2-butynyl)-1-thia-4-azaspiro[4.4]nonane-3-one trisoxalate] | 30 | – | – |
| O=C1CSCN1CC#CCN1CCN(c2ccncc2)CC1 [3-(4-(4-Pyridyl)piperazino)-2-butynyl)-4-oxothiazolidine sesquioxalate] | – | 30 | – |
| N=C(N)NCCN1CCCCCCC1 [guanethidine, reference compound] | – | 20 | – |
| COc1ccccc1N1CCN(CC#CCN2CSCC2=O)CC1 [3-[4-(1-(2-Methoxyphenyl)piperazino)-2-butynyl]-4-oxothiazolidine sesquioxalate] | – | 51 | – |
| O=C1CSCN1CC#CCN1CCN(c2ccc(F)cc2)CC1 [3-(4-(1-(4-Fluorophenyl)piperazino)-2-butynyl-4-oxothiazolidine oxalate] | – | 71 | – |
| O=C1CSCN1CC#CCN1CCC(c2noc3cc(Cl)ccc23)CC1 [3-(4-[3-(4-piperidyl)-6-chloro-benzisoxazole]-2-butynyl)-4-oxothiazolidine oxalate] | 39 | – | – |
| CC1SCC(=O)N1CC#CCN1CCC(O)(c2ccccc2)CC1.O=C(O)C(=O)O (stereo not shown) [2-Methyl-3-(4-(4-hydroxy-4-phenylpiperidino)-2-butynyl)-4-oxothiazolidine oxalate] | 51 | – | – |
| CC(C)=CCN1CCC2(C)c3cc(O)ccc3CC1C2C (stereo not shown) [pentazocine, reference compound] | – | – | % Inhibition of Writhing ([1]; standard, at 1.3 mg/kg s.c.): 50% |
| O=C(O)/C=C\C(=O)O.O=C(O)/C=C\C(=O)O.O=C1CSCN1CC#CCN1CCN(C(c2ccccc2)c2ccc(Cl)cc2)CC1 (stereo not shown) [3-(4-(1-(4-Chlorobenzhydryl)piperazino)-2-butynyl)-4-oxothiazolidine bis maleate] | – | 28 | – |
